Laboratory results reported in US20090137572A1, “2-substituted-4-heteroaryl-pyrimidines useful for the treatment of proliferative disorders” (priority 2004, published 2009).

Tests used:
Type in all cases: biochemical
CDK1-cyclin B = CDK1-cyclin B (Homo sapiens, UniProt P06493); assay: Kinase assay (radioactive phosphate incorporation), CDK1-cyclin B; conditions: read-out: Kinase Inhibition pIC50 CDK1-cyclin B (converted)
Protocol: (§1) Kinase assays. The compounds of the invention above were investigated for their ability to inhibit the enzymatic activity of various protein kinases (Table 2). This was achieved by measurement of incorporation of radioactive phosphate from ATP into appropriate polypeptide substrates. Recombinant protein kinases and kinase complexes were produced or obtained commercially. Assays were performed using 96-well plates and appropriate assay buffers (typically 25 mM β-glycerophosphate, 20 mM MOPS, 5 mM EGTA, 1 mM DTT, 1 mM […], pH 7.4), into which were added 2-4 μg of active enzyme with appropriate substrates. The reactions were initiated by addition of Mg/ATP mix (15 mM MgCl2+100 μM ATP with 30-50 kBq per well of [γ-^32P]-ATP) and mixtures incubated as required at 30° C. Reactions were stopped on ice, followed by filtration through p81 filterplates or GF/C filterplates (Whatman Polyfiltronics, Kent, UK). After washing 3 times with 75 mM aq orthophosphoric acid, plates were dried, scintillant added and incorporated radioactivity measured in a scintillation counter (TopCount, Packard Instruments, Pangbourne, Berks, UK). Compounds for kinase assay were made up as 10 mM stocks in DMSO and diluted into 10% DMSO in assay buffer.

CDK2-cyclin A = CDK2-cyclin A (Homo sapiens, UniProt P24941); assay: Kinase assay (radioactive phosphate incorporation), CDK2-cyclin A; conditions: read-out: Kinase Inhibition pIC50 CDK2-cyclin A (converted)
Protocol: as §1

CDK2-cycline E = CDK2-cycline E (Homo sapiens, UniProt P24941); assay: Kinase assay (radioactive phosphate incorporation), CDK2-cyclin E; conditions: read-out: Kinase Inhibition pIC50 CDK2-cycline E (converted)
Summary of the method: (§2)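 Inhibition was measured as transfer of radiolabelled phosphate from [γ-32P]-ATP (100 μM ATP, 15 mM MgCl2) onto polypeptide substrates by recombinant kinases or kinase complexes. Reactions ran at 30° C in MOPS/β-glycerophosphate buffer, pH 7.4, were stopped on ice and filtered before scintillation counting.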

CDK4-cyclin D1 = CDK4-cyclin D1 (Homo sapiens, UniProt P11802); assay: Kinase assay (radioactive phosphate incorporation), CDK4-cyclin D1; conditions: read-out: Kinase Inhibition pIC50 CDK4-cyclin D1 (converted)
Protocol: as §1

CDK7/cyclin H = CDK7/cyclin H (Homo sapiens, UniProt P50613); assay: CDK 7 assay (CTD peptide substrate); conditions: read-out: Kinase Inhibition pIC50 CDK7-cyclin H (converted)
Summary of the method: (§3)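 Radiometric filter-binding read-out: 32P transferred from 100 μM [γ-32P]ATP to biotinyl-(YSPTSPS)4 CTD peptide. Enzyme 0.5-2 μg recombinant human complex; 20 mM MOPS pH 7.2, 15 mM MgCl2, vanadate, DTT; 45 min, 30° C; avidin bound, P81 plate washed, counted.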

CDK9/cyclin T1 = CDK9/cyclin T1 (Homo sapiens, UniProt P50750); assay: CDK 9 assay (CTD peptide substrate); conditions: read-out: Kinase Inhibition pIC50 CDK9-cyclin T1 (converted)
Summary of the method: as §3

[1] = target: T1, Flt3 (FMS-like tyrosine kinase-3) (Homo sapiens, UniProt P36888); assay: Kinase assay (radioactive phosphate incorporation), Flt3; conditions: pIC50 is -log(IC50, M), read-out: Kinase Inhibition pIC50 Flt3 (converted)
T1 sequence (P36888 27-993): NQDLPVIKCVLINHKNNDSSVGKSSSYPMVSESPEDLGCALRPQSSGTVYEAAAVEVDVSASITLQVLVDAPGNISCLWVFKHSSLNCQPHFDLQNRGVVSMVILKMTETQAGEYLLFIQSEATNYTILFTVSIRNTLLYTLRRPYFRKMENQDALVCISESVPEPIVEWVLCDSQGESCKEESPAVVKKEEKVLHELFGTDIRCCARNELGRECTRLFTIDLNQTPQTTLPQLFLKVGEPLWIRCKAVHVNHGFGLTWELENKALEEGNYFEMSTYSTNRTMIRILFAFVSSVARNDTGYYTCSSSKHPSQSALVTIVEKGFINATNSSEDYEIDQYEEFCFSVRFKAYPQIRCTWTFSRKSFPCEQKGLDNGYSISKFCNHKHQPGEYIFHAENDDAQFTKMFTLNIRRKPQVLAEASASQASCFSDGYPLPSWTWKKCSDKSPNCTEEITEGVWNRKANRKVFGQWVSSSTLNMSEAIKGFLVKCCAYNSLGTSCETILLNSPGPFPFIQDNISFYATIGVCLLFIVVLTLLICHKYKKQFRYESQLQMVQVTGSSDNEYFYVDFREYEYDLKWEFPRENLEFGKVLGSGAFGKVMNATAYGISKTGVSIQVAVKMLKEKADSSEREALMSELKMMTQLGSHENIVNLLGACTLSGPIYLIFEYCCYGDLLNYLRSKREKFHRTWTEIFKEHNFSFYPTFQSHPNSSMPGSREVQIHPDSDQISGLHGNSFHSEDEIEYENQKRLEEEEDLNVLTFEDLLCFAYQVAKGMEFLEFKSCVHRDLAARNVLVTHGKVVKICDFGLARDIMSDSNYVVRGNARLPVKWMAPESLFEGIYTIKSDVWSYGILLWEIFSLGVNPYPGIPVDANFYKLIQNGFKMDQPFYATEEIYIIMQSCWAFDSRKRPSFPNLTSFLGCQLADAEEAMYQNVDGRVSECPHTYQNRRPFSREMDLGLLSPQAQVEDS
Summary of the method: as §2

Aurora A kinase = target: T2, Aurora A kinase (Homo sapiens, UniProt O14965); assay: Aurora-A (human) kinase assay (Kemptide substrate); conditions: pIC50 is -log(IC50, M); 15 μM ATP; read-out: Kinase Inhibition pIC50 Aurora A kinase (converted)
T2 construct: purchased
T2 sequence (O14965 1-403): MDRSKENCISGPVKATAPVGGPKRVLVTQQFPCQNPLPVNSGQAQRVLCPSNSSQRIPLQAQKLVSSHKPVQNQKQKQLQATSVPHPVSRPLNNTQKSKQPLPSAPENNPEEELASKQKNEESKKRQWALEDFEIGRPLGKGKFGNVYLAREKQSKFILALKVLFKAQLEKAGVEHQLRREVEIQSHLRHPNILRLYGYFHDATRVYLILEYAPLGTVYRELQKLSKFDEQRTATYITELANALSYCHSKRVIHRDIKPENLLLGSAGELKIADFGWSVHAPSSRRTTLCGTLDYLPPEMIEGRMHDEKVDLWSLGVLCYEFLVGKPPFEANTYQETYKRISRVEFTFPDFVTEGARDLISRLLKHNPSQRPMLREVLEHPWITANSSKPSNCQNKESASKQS
Summary of the method: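 Kemptide (LRRASLG, 200 μM) phosphorylation by 5-10 ng commercial aurora-A measured as [γ-33P] incorporation at 15 μM ATP with 10 mM Mg acetate, pH 7.0 MOPS buffer. Reaction ran 40 min at room temperature; acid-stopped, captured on P81 filters, scintillation read.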

Sequence of CDK4-cyclin D1 (P11802 whole entry): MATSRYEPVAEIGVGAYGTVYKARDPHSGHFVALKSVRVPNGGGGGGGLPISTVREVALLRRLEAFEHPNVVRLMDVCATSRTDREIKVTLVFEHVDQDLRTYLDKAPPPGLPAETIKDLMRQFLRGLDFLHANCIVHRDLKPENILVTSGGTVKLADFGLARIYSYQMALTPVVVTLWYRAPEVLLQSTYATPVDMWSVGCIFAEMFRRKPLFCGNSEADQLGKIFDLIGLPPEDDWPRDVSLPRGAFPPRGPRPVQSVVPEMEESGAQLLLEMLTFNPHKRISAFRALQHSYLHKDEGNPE
Sequence of CDK4-cyclin D1 (P24385 whole entry partner): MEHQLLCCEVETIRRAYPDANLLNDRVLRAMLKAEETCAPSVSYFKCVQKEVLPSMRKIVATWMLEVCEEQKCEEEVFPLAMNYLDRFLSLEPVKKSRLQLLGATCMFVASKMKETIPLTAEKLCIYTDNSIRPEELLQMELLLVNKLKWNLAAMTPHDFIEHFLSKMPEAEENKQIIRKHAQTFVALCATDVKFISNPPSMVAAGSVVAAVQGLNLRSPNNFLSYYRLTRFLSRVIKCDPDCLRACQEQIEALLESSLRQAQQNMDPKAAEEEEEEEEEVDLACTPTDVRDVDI
Sequence of CDK9/cyclin T1 (P50750 whole entry): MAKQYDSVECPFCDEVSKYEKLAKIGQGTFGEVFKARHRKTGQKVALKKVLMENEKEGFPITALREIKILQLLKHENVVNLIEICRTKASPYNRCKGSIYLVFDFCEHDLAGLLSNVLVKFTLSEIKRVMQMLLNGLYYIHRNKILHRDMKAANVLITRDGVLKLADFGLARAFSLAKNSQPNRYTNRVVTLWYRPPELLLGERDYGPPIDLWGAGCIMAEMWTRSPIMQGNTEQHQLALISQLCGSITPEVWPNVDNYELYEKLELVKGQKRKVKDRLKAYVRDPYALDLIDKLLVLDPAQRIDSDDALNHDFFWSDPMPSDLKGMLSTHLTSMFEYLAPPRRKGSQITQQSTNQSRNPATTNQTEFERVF
Sequence of CDK9/cyclin T1 (O60563 whole entry partner): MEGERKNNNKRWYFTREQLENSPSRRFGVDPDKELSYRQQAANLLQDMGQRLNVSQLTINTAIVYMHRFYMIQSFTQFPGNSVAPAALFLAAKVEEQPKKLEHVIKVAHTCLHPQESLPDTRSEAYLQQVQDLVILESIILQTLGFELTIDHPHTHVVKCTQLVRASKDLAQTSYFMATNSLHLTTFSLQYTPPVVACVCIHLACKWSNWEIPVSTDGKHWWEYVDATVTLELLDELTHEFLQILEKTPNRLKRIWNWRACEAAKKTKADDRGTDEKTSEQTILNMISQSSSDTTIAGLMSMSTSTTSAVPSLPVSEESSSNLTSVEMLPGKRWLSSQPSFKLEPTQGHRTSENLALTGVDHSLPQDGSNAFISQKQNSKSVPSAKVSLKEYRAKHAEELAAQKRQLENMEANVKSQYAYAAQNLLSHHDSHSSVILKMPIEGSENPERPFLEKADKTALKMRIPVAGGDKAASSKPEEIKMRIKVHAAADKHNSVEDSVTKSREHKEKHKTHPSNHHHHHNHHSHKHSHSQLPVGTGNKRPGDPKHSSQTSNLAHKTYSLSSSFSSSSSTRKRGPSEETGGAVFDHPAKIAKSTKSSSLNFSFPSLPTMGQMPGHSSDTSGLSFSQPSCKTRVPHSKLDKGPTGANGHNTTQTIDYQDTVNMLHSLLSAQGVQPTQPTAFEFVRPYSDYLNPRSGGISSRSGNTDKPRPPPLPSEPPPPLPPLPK
Sequence of CDK7/cyclin H (P50613 whole entry): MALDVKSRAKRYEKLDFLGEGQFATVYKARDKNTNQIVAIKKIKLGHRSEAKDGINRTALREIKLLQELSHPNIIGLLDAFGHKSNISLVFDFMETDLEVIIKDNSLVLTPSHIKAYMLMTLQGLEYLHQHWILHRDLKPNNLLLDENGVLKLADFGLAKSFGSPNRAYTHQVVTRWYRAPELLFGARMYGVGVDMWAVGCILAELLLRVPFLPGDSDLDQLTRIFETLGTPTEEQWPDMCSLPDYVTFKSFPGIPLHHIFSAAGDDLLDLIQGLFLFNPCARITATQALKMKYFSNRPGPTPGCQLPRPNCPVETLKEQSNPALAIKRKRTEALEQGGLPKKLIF
Sequence of CDK7/cyclin H (P51946 whole entry partner): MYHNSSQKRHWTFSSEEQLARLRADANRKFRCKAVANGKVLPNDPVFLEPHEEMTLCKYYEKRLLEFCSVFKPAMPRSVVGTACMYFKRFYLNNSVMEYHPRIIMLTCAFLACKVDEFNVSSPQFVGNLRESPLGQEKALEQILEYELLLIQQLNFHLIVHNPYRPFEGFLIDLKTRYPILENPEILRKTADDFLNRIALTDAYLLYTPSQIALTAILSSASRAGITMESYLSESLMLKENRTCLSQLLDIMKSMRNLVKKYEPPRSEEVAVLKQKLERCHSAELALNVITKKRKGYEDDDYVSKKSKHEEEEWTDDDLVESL
Sequence of CDK1-cyclin B (P06493 whole entry): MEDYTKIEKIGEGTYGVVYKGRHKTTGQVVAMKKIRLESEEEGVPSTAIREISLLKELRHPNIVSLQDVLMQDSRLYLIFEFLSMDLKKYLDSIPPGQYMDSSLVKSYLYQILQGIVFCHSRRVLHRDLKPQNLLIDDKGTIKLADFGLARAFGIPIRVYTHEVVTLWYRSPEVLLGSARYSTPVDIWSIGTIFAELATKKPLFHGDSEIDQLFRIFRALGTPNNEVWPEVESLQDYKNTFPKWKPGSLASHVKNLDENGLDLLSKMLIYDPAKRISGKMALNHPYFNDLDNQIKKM
Sequence of CDK1-cyclin B (P14635 whole entry partner): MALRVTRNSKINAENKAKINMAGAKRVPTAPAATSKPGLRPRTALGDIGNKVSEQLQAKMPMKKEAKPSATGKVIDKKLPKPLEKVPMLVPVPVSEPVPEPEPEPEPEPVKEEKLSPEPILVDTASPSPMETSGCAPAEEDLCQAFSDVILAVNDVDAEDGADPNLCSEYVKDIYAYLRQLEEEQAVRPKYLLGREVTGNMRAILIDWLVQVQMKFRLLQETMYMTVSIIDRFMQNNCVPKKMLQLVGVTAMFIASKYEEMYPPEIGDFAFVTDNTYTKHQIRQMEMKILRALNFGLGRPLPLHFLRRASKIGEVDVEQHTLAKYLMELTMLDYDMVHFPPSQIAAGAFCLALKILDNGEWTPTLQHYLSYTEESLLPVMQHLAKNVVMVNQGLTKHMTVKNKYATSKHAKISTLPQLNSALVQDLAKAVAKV

| Structure (SMILES) | IC50 (CDK1-cyclin B) [nM] | IC50 (CDK2-cyclin A) [nM] | IC50 (CDK2-cycline E) [nM] | IC50 (CDK4-cyclin D1) [nM] | IC50 (CDK7/cyclin H) [nM] | IC50 (CDK9/cyclin T1) [nM] | IC50 [1] [nM] | IC50 (Aurora A kinase) [nM] |
| --- | --- | --- | --- | --- | --- | --- | --- | --- |
| Cc1nc(N)sc1-c1ccnc(Nc2cccc(CNS(C)(=O)=O)c2)n1 [Compound 6, N-{3-[4-(2-Amino-4-methyl-thiazol-5-yl)-pyrimidin-2-ylamino]-benzyl}-methanesulfonamide] | 1000 | 398 | 100 | 200 | 126 | 7.94 | 50.1 | 126 |
| CNc1nc(C)c(-c2ccnc(Nc3cccc(N4CCNCC4)c3)n2)s1 [Compound 7, [4-(4-Methyl-2-methylamino-thiazol-5-yl)-pyrimidin-2-yl]-(3-piperazin-1-yl-phenyl)-amine] | 3160 | 2510 | 398 | 1000 | 631 | 200 | 12.6 | 200 |
| CCNc1nc(C)c(-c2ccnc(Nc3ccc(CNC(C)=O)cc3)n2)s1 [Compound 13, N-{4-[4-(2-Ethylamino-4-methyl-thiazol-5-yl)-pyrimidin-2-ylamino]-benzyl}-acetamide] | 631 | 126 | – | 63.1 | 200 | 25.1 | 31.6 | 15.8 |
| CCNc1nc(C)c(-c2ccnc(Nc3cccc(S(=O)(=O)NC)c3)n2)s1 [Compound 22, 3-[4-(2-Ethylamino-4-methyl-thiazol-5-yl)-pyrimidin-2-ylamino]-N-methyl-benzenesulfonamide] | 1000 | 794 | 100 | 200 | 100 | 39.8 | 79.4 | 63.1 |
| CCNS(=O)(=O)c1cccc(Nc2nccc(-c3sc(NC)nc3C)n2)c1 [Compound 31, N-Ethyl-3-[4-(4-methyl-2-methylamino-thiazol-5-yl)-pyrimidin-2-ylamino]-benzenesulfonamide] | 501 | 1260 | 251 | 50.1 | 1000 | 20 | 63.1 | 63.1 |
| CNc1nc(C)c(-c2ccnc(Nc3cccc(CC(=O)OCCOC)c3)n2)s1 [Compound 44, {3-[4-(4-Methyl-2-methylamino-thiazol-5-yl)-pyrimidin-2-ylamino]-phenyl}-acetic acid 2-methoxy-ethyl ester] | 2000 | 2000 | – | 2000 | 3160 | 251 | 63.1 | – |
